Where two headings read alike, the source gives them in different places.
Test system: weeds
Test: Actual control effects and combined effects of mixtures of active ingredients (i) and (ii), stem-leaf treatment, Gowing method
Type: in vivo
Conditions: 20 days
Procedure: According to the actual control effect and the property of the herbicides, the balance of the formula and other factors, the optimal ratio was determined. In the calculation formula: X represents the fresh weight inhibition rate when the active ingredient (i) is used in an amount of P; and Y represents the fresh weight inhibition rate when the active ingredient (ii) is used in an amount of Q. The statistical results are shown in Tables 9-11 below.

[1] = 480 h, Echinochloa phyllopogon, (ii) 15 g a.i./mu, stem-leaf treatment, read-out: Control effect of (ii) alone at corresponding dose
[2] = Echinochloa phyllopogon, (ii) 15 g a.i./mu
[3] = Echinochloa phyllopogon, (ii) 0.6 g a.i./mu
[4] = Leptochloa chinensis, (ii) 15 g a.i./mu
[5] = Echinochloa phyllopogon, (ii) 3 g a.i./mu
[6] = Monochoria vaginalis, (ii) 3 g a.i./mu
[7] = Pontederia vaginalis, 480 h, Monochoria vaginalis, (ii) 3 g a.i./mu, stem-leaf treatment, read-out: Control effect of (ii) alone at corresponding dose
[8] = Pontederia vaginalis, 480 h, Monochoria vaginalis, (ii) 5 g a.i./mu, stem-leaf treatment, read-out: Control effect of (ii) alone at corresponding dose
[9] = Echinochloa phyllopogon, (ii) 3 g a.i./mu, stem-leaf treatment

CCCCOCN(C(=O)CCl)c1c(CC)cccc1CC [Butachlor]
pest or weed control at […] [1]: 19.3% | pest or weed control at 450 g/ha (480 h, Echinochloa phyllopogon, (ii) 30 g a.i./mu, read-out: Control effect of (ii) alone at corresponding dose): 39.7% | Control effect of (ii) alone at corresponding dose [2]: 19.3%

CCC(C)Nc1c([N+](=O)[O-])cc(C(C)(C)C)cc1[N+](=O)[O-] (stereo not drawn) [Butralin]
pest or weed control at 45 g/ha (480 h, Cyperus difformis, (ii) 3 g a.i./mu, stem-leaf treatment, read-out: Control effect of (ii) alone at corresponding dose): 16.4% | pest or weed control at 450 g/ha (480 h, Cyperus difformis, (ii) 30 g a.i./mu, read-out: Control effect of (ii) alone at corresponding dose): 46.8% | Control effect of (ii) alone at corresponding dose (Cyperus difformis, (ii) 3 g a.i./mu): 16.4%

CCOC(=O)C(Cl)Cc1cc(-n2nc(C)n(C(F)F)c2=O)c(F)cc1Cl (stereo not drawn) [Carfentrazone-ethyl]
pest or weed control at 3 g/ha (480 h, Echinochloa phyllopogon, (ii) 0.2 g a.i./mu, stem-leaf treatment, read-out: Control effect of (ii) alone at corresponding dose): 5.3% | pest or weed control at 120 g/ha (480 h, Echinochloa phyllopogon, (ii) 8 g a.i./mu, stem-leaf treatment, read-out: Control effect of (ii) alone at corresponding dose): 73.6% | Control effect of (ii) alone at corresponding dose (Echinochloa phyllopogon, (ii) 0.2 g a.i./mu): 5.3% | Control effect of (ii) alone at corresponding dose (Echinochloa phyllopogon, (ii) 8 g a.i./mu): 73.6%

Cc1ccc(NC(=O)N(C)C)cc1Cl [Chlortoluron]
pest or weed control at 9 g/ha (480 h, Echinochloa phyllopogon, (ii) 0.6 g a.i./mu, stem-leaf treatment, read-out: Control effect of (ii) alone at corresponding dose): 18.3% | pest or weed control at […] [1]: 57.6% | Control effect of (ii) alone at corresponding dose [3]: 18.3% | Control effect of (ii) alone at corresponding dose [2]: 57.6%

CC1(C)CON(Cc2ccccc2Cl)C1=O [Clomazone]
pest or weed control at 45 g/ha (Dinebra chinensis, 480 h, Leptochloa chinensis, (ii) 3 g a.i./mu, read-out: Control effect of (ii) alone at corresponding dose): 16.8% | pest or weed control at […] (Dinebra chinensis, 480 h, Leptochloa chinensis, (ii) 15 g a.i./mu, stem-leaf treatment, read-out: Control effect of (ii) alone at corresponding dose): 53.6% | Control effect of (ii) alone at corresponding dose [4]: 53.6%

O=C(O)c1nc(Cl)ccc1Cl [Clopyralid]
Control effect of (ii) alone at corresponding dose (Monochoria vaginalis, (ii) 1 g a.i./mu): 49.6% | pest or weed control at 15 g/ha (Pontederia vaginalis, 480 h, Monochoria vaginalis, (ii) 1 g a.i./mu, stem-leaf treatment, read-out: Control effect of (ii) alone at corresponding dose): 49.6% | pest or weed control at 18 g/ha (Pontederia vaginalis, 480 h, Monochoria vaginalis, (ii) 1.2 g a.i./mu, read-out: Control effect of (ii) alone at corresponding dose): 56.3%

CCCCOC(=O)[C@@H](C)Oc1ccc(Oc2ccc(C#N)cc2F)cc1 [Cyhalofop-butyl]
pest or weed control at 45 g/ha (480 h, Echinochloa phyllopogon, (ii) 3 g a.i./mu, stem-leaf treatment, read-out: Control effect of (ii) alone at corresponding dose): 12.2% | pest or weed control at […] (480 h, Echinochloa phyllopogon, (ii) 15 g a.i./mu, read-out: Control effect of (ii) alone at corresponding dose): 45.1% | Control effect of (ii) alone at corresponding dose [5]: 12.2%

COc1c(Cl)ccc(Cl)c1C(=O)O [Dicamba]
Control effect of (ii) alone at corresponding dose [6]: 50.9% | Control effect of (ii) alone at corresponding dose (Monochoria vaginalis, (ii) 5 g a.i./mu): 70.2% | pest or weed control at 45 g/ha [7]: 50.9% | pest or weed control at 75 g/ha [8]: 70.2%

CCN(C(=O)n1nnn(-c2ccccc2Cl)c1=O)C1CCCCC1 [Fentrazamide]
Control effect of (ii) alone at corresponding dose [6]: 30.2% | pest or weed control at […] (Pontederia vaginalis, 480 h, Monochoria vaginalis, (ii) 1.5 g a.i./mu, read-out: Control effect of (ii) alone at corresponding dose): 18.3% | pest or weed control at 45 g/ha [7]: 30.2%

COc1c(Cl)ccc(-c2nc(C(=O)OCc3ccccc3)c(Cl)c(N)c2F)c1F [Florpyrauxifen-benzyl]
Control effect of (ii) alone at corresponding dose [3]: 21.5% | Control effect of (ii) alone at corresponding dose (Echinochloa phyllopogon, (ii) 0.6 g a.i./mu, stem-leaf treatment): 21.5% | Control effect of (ii) alone at corresponding dose [5]: 70.5% | Control effect of (ii) alone at corresponding dose [9]: 70.5%

O=C1C(Cl)C(CCl)CN1c1cccc(C(F)(F)F)c1 (stereo not drawn) [Fluorochloridone]
Control effect of (ii) alone at corresponding dose [5]: 9.1% | Control effect of (ii) alone at corresponding dose [9]: 9.1% | Control effect of (ii) alone at corresponding dose (Echinochloa phyllopogon, (ii) 30 g a.i./mu): 52.3%

Nc1c(Cl)c(F)nc(OCC(=O)O)c1Cl [Fluroxypyr]
Control effect of (ii) alone at corresponding dose [6]: 60.3% | pest or weed control at 45 g/ha [7]: 60.3% | pest or weed control at 60 g/ha (Pontederia vaginalis, 480 h, Monochoria vaginalis, (ii) 4 g a.i./mu, read-out: Control effect of (ii) alone at corresponding dose): 70.4% | pest or weed control at 75 g/ha [8]: 73.4%

Cn1[nH]c(C2CC2)c(C(=O)c2ccc(C(F)(F)F)c(N3CCCCC3=O)c2Cl)c1=O [Huanbifucaotong]
Control effect of (ii) alone at corresponding dose (Digitaria sanguinalis, (ii) 3 g a.i./mu, stem-leaf treatment): 6.2% | Control effect of (ii) alone at corresponding dose (Leptochloa chinensis, (ii) 0.5 g a.i./mu): 9.2% | Control effect of (ii) alone at corresponding dose (Leptochloa chinensis, (ii) 0.5 g a.i./mu, stem-leaf treatment): 9.2% | Control effect of (ii) alone at corresponding dose [4]: 76.2%

— US20230041563A1, “N-(1,3,4-OXADIAZOL-2-YL)ARYLCARBOXAMIDES OR SALTS THEREOF, PREPARATION METHODS, HERBICIDAL COMPOSITIONS AND USES THEREOF” (priority 2018, published 2023)
